Test results from patent publication US20090054376A1, “BENZOFURAN DERIVATIVES WITH THERAPEUTIC ACTIVITIES” (Pharmos Corporation, priority 2005, published 2009).

Tested on: TNBS induced inflammatory bowel disease
Experiment: TNBS induced inflammatory bowel disease
Type: in vivo, Female Balb/C mice
Conditions: 20 mg/kg i.p. daily
Protocol: Female Balb/C mice (average body weight 20 g, Harlan, Israel) were lightly sedated and challenged rectally, by instillation with 70 μl of 2.5% TNBS (Sigma) dissolved in 50% ethanol, to induce intestinal inflammation and colitis. Animals were weighted before the beginning of the study and treatment was administered i.p. on a daily basis for six days at 20 mg/kg and volume dosage of 5 ml/kg. During the study period of up to 7 days, the following parameters were daily monitored and recorded: body weight, presence of blood in the stool and stool consistency. These findings are scored according to Table 6 [Murthy S.N. et al., Dig. Dis. Sci. 38:1722-34, 1993].
On the last day of the study, animals were euthanized. Abdomen was open and the colon was sectioned at the level of the caecum and the rectum. The colon was weighted and its length was measured. The whole column was excised, slited longitudinally, and examined under a magnifying lens. Any visible damage was recorded and scored for gross pathology according to Wong [Wong et al., J. Pharm. Exp. Ther. 274: 475-80, 1995]. Namely, a score of 0 indicates no damage, 1 indicates localized hyperemia and/or edema, 2 indicates at least two sites of hyperemia and/or edema, 3 indicates localized erosion, 4 indicates localized ulcer and 5 indicates either an erosion site or ulcer extending for more than 2 cm along the colon or at least two sites of erosion or ulcer. Finally, the entire colon was fixed in 4% formaldehyde for histopathological evaluation.
Each treatment group comprised at least seven animals. The following groups served as negative controls: naïve animals, sham animals that received 70 μl of 50% ethanol without TNBS, and TNBS challenged untreated and vehicle treated animals. A group of animals receiving 10 mg/kg sulfasalazine served as positive controls. Sulfasalazine is a standard anti-inflammatory drug used for the treatment of mild to moderate ulcerative colitis and Crohn's disease, and as adjunctive therapy in the treatment of severe ulcerative colitis. This drug is also used for the treatment of non-IBD related disorders, such as rheumatoid arthritis and ankylosing spondylitis. The recognized side effect of this medicament is its hepatotoxicity upon chronic treatment.

## CCCCC(C)(C)c1cc(O)c2c(c1)OC1CCCCC21 (stereo not drawn) [Compound C6S-3, 3-(1,1-dimethylpentyl)-5a,6,7,8,9,9a-hexahydro-dibenzofuran-1-ol]
  regained normal weight after: 4 days of treatment
One day after TNBS instillation
  transient loss in body weight: about 5%
Untreated 60%
  mortality: 7%
